Test results: patent US20130302889A1, “Differentiation of Bone Marrow Cells into Neuronal Cells and Uses Therefor” (Philadelphia Health and Education Corporation, priority 2002, published 2013)
Entries after “also recorded” stand apart in the source; their conditions may differ.

Experiments:
rMSCs [1] = experiment: Neuronal differentiation of rMSCs (morphology); type: cell-based, rat; conditions: for neuronal morphologies elicited by anti-oxidant treatment: alone and in combination, time course similar to BME
Protocol: Rat MSCs were originally cultured in alpha-Modified Eagle's Medium (alpha-MEM) supplemented with 20% FBS, 2 mM L-glutamine, 100 units per milliliter penicillin, […] streptomycin and 25 nanogramps per milliliter amphotericin B. For each passage the cells were plated at about 8,000 cells per square centimeter and grown to confluency. At passage 6 the cells were transferred to DMEM (pH 8.0)/20% FBS without additional supplementation, and maintained beyond passage 14. The rat MSCs were obtained with a protocol and procedures approved by the Institutional IACUC. The human samples were obtained from volunteers with informed consent and according to a protocol approved by the Institutional Review Board.
To induce the neuronal phenotype, rMSCs were initially maintained in sub-confluent cultures in media supplemented with 1 mM beta-mercaptoethanol (BME) for 24 hours. […] To effect neuronal differentiation, the cells were transferred to serum-free medium containing 1-10 millimolar BME (SFM/BME). […] Within 60 minutes of exposure to SFM/BME changes in morphology of some of the rMSCs were apparent (FIG. 2C). Responsive cells progressively assumed neuronal morphological characteristics over the first 3 hours. Initially, cytoplasm in the flat rMSCs retracted towards the nucleus, forming a contracted multipolar, cell body, leaving membranous, process-like extensions peripherally (0-90 minutes).
To begin examining the hypothesis that the anti-oxidant properties of BME mediated induction of neuronal differentiation in MSCs, rMSCs were treated with other anti-oxidants, e.g., dimethylsulfoxide (DMSO), butylated hydroxyanisole (BHA), or butylated hydroxytoluene (BHT), ascorbic acid, dimethylfumarate, n-acetylcysteine, and the like, both alone and in combination with each other.

rMSCs [2] = experiment: Immunocytochemistry for neuronal markers in treated rMSCs; type: cell-based, rat
Protocol: Cultured rMSCs were fixed with 4% paraformaldehyde, incubated with primary antibody overnight at 4° C., incubated with secondary antibody for one hour, followed by exposure to avidin-biotin complex for one hour at 25° C. Diaminobenzidene (DAB) served as chromogenic substrate for HRP.
To further characterize potential neuronal differentiation, BME-treated cultures were stained to detect expression of the neuronal marker neuron-specific enolase (NSE). Unresponsive, flat rMSCs expressed very low, but detectable, levels of NSE protein, consistent with previous detection of minute amounts of protein and/or message in cells of bone marrow origin (Pechumer et al., 1993, Lab. Invest. 89:743-749; Reid et al., 1991, Clin. Pathol. 44:483-486; vanObberghen et al., 1988, J. Neurosci. Res. 19:450-456).

rMSCs [3] = experiment: Western blot for NSE in rMSC cultures; type: cell-based, rat; conditions: 5 hours post BME treatment, versus uninduced rMSCs
Protocol: […] of protein extract from untreated (U) and BME-induced (I) rMSC cultures was separated on a 4%-20% gradient acrylamide gel and electrophoretically transferred to a nylon membrane. The Western blot was probed for tubulin, expression using an anti-tubulin monoclonal antibody (Sigma Chemical Co., St. Louis, Mo.) followed by secondary antibody conjugated with horse radish peroxidase (HRP). Color development was performed using enhanced chemiluminescence reagents (Amersham, Piscataway, N.J.). The blot was then stripped and probed for NSE expression using anti-NSE polyclonal antibody (ICN). Again, the secondary antibodies were HRP-conjugated, and color was developed using ECL reagents, […]

rMSC clones = experiment: Differentiation of clonal rMSC lines; type: cell-based, rat; conditions: after BME treatment
Protocol: To establish clones, rMSCs were plated at approximately 10 cells per square centimeters, grown to 50-150 cells per colony, isolated with cloning cylinders, transferred to separate wells and eventually to individual flasks.

hMSCs = experiment: Neuronal differentiation of human MSCs; type: cell-based
Protocol: Cells from passage two were subjected to the neuronal differentiation protocol and stained for NSE or NF-M expression. […] Contracted cell bodies elaborated processes and stained strongly for NSE expression within 3 hours (FIGS. 8A and 8B). Transitional cells were also evident ( ? ). […] Growth cone morphologies with filopodial extensions ( ? ) were clearly evident on the processes elaborated by paired neurons depicted in the image in FIG. 8C.

SMILES: OCCS [BME, beta-mercaptoethanol]
- percentage of cells adopting a neuronal morphology (rMSCs [1]; SFM with 1-10 millimolar BME, effect of concentration): increased at higher BME concentrations
- percentage of cells adopting a neuronal morphology (rMSCs [1]; effect of BME pretreatment): enhanced by BME pretreatment
- time to apparent changes in morphology (rMSCs [1]; serum-free medium containing 1-10 millimolar BME (SFM/BME)): ≤ 60 minutes
- changes in morphology (rMSCs [1]; sub-confluent cultures, media supplemented with 1 mM BME for 24 hours): no changes in morphology were evident
- NSE expression (immunostaining) (rMSCs [2]; BME-treated cultures): increased expression of NSE
- time to increased expression of neuronal marker NSE (rMSCs [2]; after treatment): ≤ 30 min
- NF-M expression (immunostaining) (rMSCs [2]; cells exhibiting neuronal morphologies): increased expression of NF-M
- NeuN expression (immunostaining) (rMSCs [2]; differentiated cultures): stained for NeuN expression
- NSE expression (Western blot) (rMSCs [3]): significant increase in NSE expression
- generation of NSE-positive neurons from single-cell clones (rMSC clones): differentiated into NSE-positive neurons; also recorded: generated refractile, process-bearing, NSE-positive cells
- NF-M expression (hMSCs; hMSC-derived neurons): expressed NF-M
- neuronal characteristics and NSE expression (hMSCs; hMSCs passage two, after BME treatment): attained neuronal characterises and increased NSE expression
- time to strong NSE staining (hMSCs; hMSCs, BME treatment): ≤ 3 h

SMILES: Cc1cc(C(C)(C)C)c(O)c(C(C)(C)C)c1 [BHT, butylated hydroxytoluene]
- neuronal morphologies elicited by anti-oxidant treatment (rMSCs [1]): elicited neuronal morphologies

SMILES: O=C1O[C@H]([C@@H](O)CO)C(O)=C1O [ascorbic acid]
- neuronal morphologies elicited by anti-oxidant treatment (rMSCs [1]): elicited neuronal morphologies

SMILES: C[S+](C)[O-] [DMSO, dimethylsulfoxide]
- neuronal morphologies elicited by anti-oxidant treatment (rMSCs [1]): elicited neuronal morphologies

SMILES: CC(=O)N[C@@H](CS)C(=O)O [n-acetylcysteine]
- neuronal morphologies elicited by anti-oxidant treatment (rMSCs [1]): elicited neuronal morphologies

SMILES: COc1ccc(O)c(C(C)(C)C)c1 [BHA, butylated hydroxyanisole]
- neuronal morphologies elicited by anti-oxidant treatment (rMSCs [1]): elicited neuronal morphologies
